Where “and” joins values, the source holds several entries; their conditions need not be identical. Identical values can stand only once.
Experiments:
[1] = test system: estrogen receptor mRNA; assay: Reduction of estrogen receptor mRNA levels in treated MCF-7 human breast tumor cells; assay type: cell-based;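 on Estrogen Receptor mRNA band intensity: Phosphoimager intensity of radioactive mRNA bands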
Experimental: (§1) After treatment with 30 μM drug for 24 hr, total RNA is isolated according to the guanidinium isothiocyanate method using an RNA preparation kit from 5 Prime-3 Prime, Inc., following the manufacturer's instructions. The RNA is separated by formaldehyde gel electrophoresis and transferred to a nylon membrane.

[2] = molecular target: T1, estrogen receptor binding to an estrogen response element (Homo sapiens, UniProt P03372); assay: Inhibition of estrogen receptor binding to an estrogen response element in DNA mobility shift assays; assay type: biochemical, human (nuclear extract of MCF-7 human breast cancer cells)
T1 construct: estrogen receptor extracted from MCF-7 human breast tumor cells; endogenous in cells; host or cells: MCF-7 human breast cancer cells (nuclear extract, cytosol or whole cell extract)
T1 sequence (P03372 1-595): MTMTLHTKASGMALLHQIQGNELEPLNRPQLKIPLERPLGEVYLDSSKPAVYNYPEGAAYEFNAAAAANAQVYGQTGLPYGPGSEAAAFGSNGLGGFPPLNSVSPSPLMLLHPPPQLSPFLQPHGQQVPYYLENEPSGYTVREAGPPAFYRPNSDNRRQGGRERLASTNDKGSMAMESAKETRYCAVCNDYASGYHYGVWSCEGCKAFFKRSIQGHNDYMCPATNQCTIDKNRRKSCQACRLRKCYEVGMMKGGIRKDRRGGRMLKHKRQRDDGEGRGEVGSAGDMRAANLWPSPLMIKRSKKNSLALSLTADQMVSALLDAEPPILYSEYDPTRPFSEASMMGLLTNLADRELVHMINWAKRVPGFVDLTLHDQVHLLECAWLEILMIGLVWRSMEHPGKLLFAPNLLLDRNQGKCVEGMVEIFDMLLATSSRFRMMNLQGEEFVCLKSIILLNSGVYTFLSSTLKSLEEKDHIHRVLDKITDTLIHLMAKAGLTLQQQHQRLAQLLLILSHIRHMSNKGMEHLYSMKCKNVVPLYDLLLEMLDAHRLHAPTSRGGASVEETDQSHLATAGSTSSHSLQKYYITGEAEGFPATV
Experimental: (§2) Monolayers of MCF-7 human breast cancer cells are rinsed once with HBSS and scraped off culture dishes into 15 ml conical tubes with 5 ml HBSS. The cells are sedimented by centrifugation at 250×g for five minutes, suspended in 1 ml HBSS and sedimented by centrifugation at 2000 rpm in a tabletop centrifuge for five minutes in a 1.5 ml microfuge tube. Two PCV of a solution of a lysis buffer (25 mM HEPES, pH 7.8, 50 mM KCl, 0.5% Nonidet P 40, 2 mM dithiothreitol, 0.2 mM phenylmethylsulfonyl fluoride, 0.05 mg/ml leupeptin, 0.05 mg/ml aprotinin, 0.0025 mg/ml pepstatin, 0.005 mg/ml antipain) are added and cells are kept on ice for 15 minutes. Lysed cells are centrifuged for 3 minutes at 10,000×g, supernatant decanted, and kept as the cytosol fraction. Pellets are suspended in two PCV of extraction buffer (25 mM HEPES, pH 7.8, 500 mM KCl, 10% glycerol, 2 mM dithiothreitol and the above protease inhibitors), mixed for 20 minutes by inversion at 4 degrees C. and centrifuged at 10,000×g for 20 minutes. The supernatant is decanted and saved as nuclear extract. Both the nuclear extract and the cytosol are dialyzed for two hours against dialysis buffer (25 mM HEPES, pH 7.8, 50 mM KCl, 10% glycerol, 2 mM dithiothreitol and the above protease inhibitors). Nuclear and cytosol fractions are stored frozen at -80 degrees C. until used for mobility shift assays or determination of estrogen receptor content.
Briefly, to each reaction tube was added 0.01 mg nuclear extract, 2 μg poly dIdC, 50 mM NaCl, 1 mM dithiothreitol and 10 mM Tris, pH 7.5 in a total volume of 0.01 ml and the mixture was kept at room temperature for 10 minutes. A ^32 P-labelled estrogen response element [ERE]

[3] = molecular target: T2, estrogen receptors (Homo sapiens, UniProt P03372); assay: Quantification of estrogen receptors in nuclear and whole cell extracts (ER-EIA monoclonal kit), Table 1; assay type: cell-based, human (MCF-7 human breast cancer cells); conditions: estrogen receptors in nuclear extracts
T2 construct: estrogen receptor extracted from MCF-7 human breast tumor cells; endogenous in cells; host or cells: MCF-7 human breast cancer cells (nuclear extract, cytosol or whole cell extract)
T2 sequence (P03372 1-595): T1 sequence (P03372 1-595)
Experimental: as §2
Whole cell extracts of tumor cells are prepared by the method of Reese and Katzenellenbogen, Nuc. Acids Res., 19: 6595-6602 (1991), with some modifications. Cell monolayers are rinsed once with HBSS, then scraped into HBSS and sedimented by centrifugation (5 min., 250×g). After resuspending in 1 mL HBSS, the cells are again sedimented at 250×g for 5 min at 4° C. The cell pellet is resuspended in lysis/extract buffer containing 20 mM Tris, pH 7.5, 10% glycerol (v/v), 0.5M sodium chloride and 0.5% NP-40 (v/v) and incubated on ice for 25 minutes, then the supernatants are dialyzed against 25 mM HEPES, pH 7.8, 10% glycerol (v/v), 0.5 mM dithiothreitol and 50 mM potassium chloride for 2 hours at 4° C. Both the lysis/extraction and the dialysis buffers contain protease inhibitors which included 0.5 mM phenylmethylsulfonylfluoride, 0.05 mg/mL leupeptin, 0.05 mg/mL aprotinin, 0.00-25 mg/mL pepstatin, and 0.005 mg/mL antipain. Dialyzed whole cell extracts are stored in aliquots at -80° C. until used.
The protein concentration for nucleus and cytosol fractions are determined with a BIO-RAD kit, according to the manufacturer's instructions.
Estrogen receptor levels in nuclear and whole cell extracts of tumor cells were quanitated using the ER-EIA monoclonal kit manufactured by Abbott Laboratories (Diagnostic Division) according to the kit instructions.
receptors in nuclear extracts.
.dagger.WCE refers to IC50 value for estrogen receptors in whole cel
A slash dividing two numbers indicates the results of two separate

[4] = test system: GAPDH mRNA; assay: GAPDH mRNA levels in treated MCF-7 human breast tumor cells (positive control probe); assay type: cell-based; conditions: 30 μM, 24 hr;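 further: Phosphoimager intensity of radioactive mRNA bands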
Experimental: as §1

[5] = molecular target: T3, MCF-7 estrogen receptor (Homo sapiens, UniProt P03372); assay: Competitive binding assay, Relative Binding Affinities on binding of estradiol to MCF-7 estrogen receptor
T3 construct: estrogen receptor extracted from MCF-7 human breast tumor cells; endogenous in cells; host or cells: MCF-7 human breast cancer cells (nuclear extract, cytosol or whole cell extract)
T3 sequence (P03372 1-595): T1 sequence (P03372 1-595)
Experimental: Briefly, RBAs are determined from competitive binding assays with several concentrations of estradiol (E2) with and without test compound. After 16-18 hours of incubation at 4 degrees C., unbound [^3 H] E2 is separated from ER-bound [^3 H] E2. The IC50 is determined and the RBA is calculated as: […]

[6] = test system: hormone-dependent breast cancer; conditions: cited from earlier work
[7] = test system: mouse estrogen receptor; conditions: Fawell, S. E., et al. (1990); cited from earlier work
[8] = test system: MCF-7 human breast tumor cells; assay: Clonigenic assay for MCF-7 human breast tumor cells; assay type: cell-based; conditions: for Colonies ± S.D.: 24 hours treatment, grown 22 days
Experimental: MCF-7 cells (10^7) are added to 100 mm tissue culture dishes, allowed to adhere for 24 hours and then treated with either MDL 101,906 or ICI 164,384 for 24 hours. The cells are removed from the dishes with trypsin/EDTA, and washed twice by centrifugation. The cells were counted and 500 cells from each treatment group are added to triplicate wells of 6-well culture dishes. The cells are grown for 22 days. Colonies 1 mm diameter or greater are counted.

[9] = read-out: integrated volume of shifted ERE oligo as percentage of control, given as % inhibition

With `CCCCN(C)C(=O)CCCCCCCNC(=O)Cc1c(-c2ccc(O)cc2)n(Cc2ccccc2)c2ccc(O)cc12` [MDL 103,324, 8-[[5-Hydroxy-1-benzyl-2-[(4-hydroxy)-phenyl]-1H-indol-3-yl]-acetylamino]-octanoic acid methyl-butyl-amide] the ER/GAPDH mean ([1]; 30 μM, 24 hr, mean of replicates 1 and 2) was 0.74, the ER/GAPDH ([1]; 30 μM, 24 hr, replicate 1) was 0.61 and the “Estrogen Receptor mRNA band intensity” value ([1]; 30 μM, 24 hr, replicate 1) was 5,128. The ER/GAPDH ([1]; 30 μM, 24 hr, replicate 2) was 0.87, the “Estrogen Receptor mRNA band intensity” value ([1]; 30 μM, 24 hr, replicate 2) was 7,077 and the activity at 30 µM ([1]; Homo sapiens, MCF7, 24 h, read-out: ER/GAPDH % Control) was 20%. For the same compound, the IC50 [2] was 8.5 µM and 18 µM, the inhibition at 2 µM [2, 9] was 60% and the inhibition at 5 µM [2, 9] was 68%. It also gave an inhibition at 10 µM [2, 9] of 58%, an inhibition at 20 µM [2, 9] of 46% and an inhibition at 30 µM [2, 9] of 50%. The IC50 [3] was 18 µM, the “GAPDH mRNA band intensity” value ([4]; replicate 1) was 8,300 and the “GAPDH mRNA band intensity” value ([4]; replicate 2) was 8,118. For the same compound, the “inhibition of estradiol binding to MCF-7 ER” value ([5]; doses of 100 or 200 nM) was “did not significantly inhibit” and the “inhibition of estradiol binding to MCF-7 ER” value ([5]; typically, at doses of 100 or 200 nM) was “less than 10%”.

In the case of `CC/C(=C(\c1ccccc1)c1ccc(OCCN(C)C)cc1)c1ccccc1` [tamoxifen], the “patients who do not respond to tamoxifen treatment despite presence of ERs in the malignant tissue” value ([6]; Maass, H., et al., Cancer, 46:2783 (1980)) is listed as “About 40%” and the “toxicological problems associated with tamoxifen treatment” value ([6]; in vivo) is listed as “tumor flares, vaginal cornification and hypercalciemia”.

In the case of `CCCCN(C)C(=O)CCCCCCCCCC[C@@H]1Cc2cc(O)ccc2[C@H]2CC[C@]3(C)[C@@H](O)CC[C@H]3[C@H]12` [ICI 164,384, 11-(3-17β-dihydroxyoestra-1,3,-5(10)-trien-7α-yl)-N-n-butyl-N-methylundecanamide, reference compound], the “inhibition of DNA binding of the mouse estrogen receptor” value [7] is listed as “inhibit DNA binding of the mouse estrogen receptor by interfering with receptor dimerization”, the “Colonies ± S.D.” value ([8]; 0.1 μM) is listed as 48 ± 6 and the “Colonies ± S.D.” value ([8]; 1.0 μM) is listed as 40 ± 2. The activity at 0.1 µM ([8]; Homo sapiens, MCF7, 528 h, 0.1 μM, read-out: Colonies, % Control) was 145% and the activity at 1 µM ([8]; Homo sapiens, MCF7, 528 h, 1.0 μM, read-out: Colonies, % Control) was 121%.
